Assay results from the supplement of paper PMC11208160.

Assay: recombinant UMI read abundance after kanamycin selection (control-corrected) (log10(CPM+1)); higher = more efficient recombination; extreme values may be limits of the assay; sequences stand for … in AGTGCAGAGAAAATCGGCCAGTTTTCTCTGCCTGCAGTCCGCATGCCGTGGGACCCCTTGGGTTCTAACCTGTTGCCTAGATTTATGCAGCGGACTGCCTTTCTCCCAAAGTGATAAACCGG…AGGTTGGTTTCACT; site = the 11-nt donor
Outline: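 After plating on IPTG (0.07 mM) plus kanamycin, or unselected, in two replicates, recombinant UMIs were PCR-amplified across the donor–target junction and sequenced. The cells were Escherichia coli co-electroporated with a UMI-tagged donor and donor-binding-loop pair library and a target plasmid with a fixed target and T7-inducible IS621 bridge recombinase. Values are log10(CPM+1), with CPM averaged over replicates and scaled by control-derived factors.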
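Note: IS621 bridge recombinase in Escherichia coli cells against a fixed T5 target plasmid.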

| Sequence | recombinant UMI read abundance (log10) |
| --- | --- |
| TCTTGCCCATGGACCGGTTTTCCCGGTAATCCGTATTTGAT (site CCTTGCCCTAT) | 0.0026 |
| ATCCAAGCATGGACCGGTTTTCCCGGTAATCCGTATTTGAC (site ATCCAAGCTCT) | 0.0101 |
| CCTAGTTCATGGACCGGTTTTCCCGGTAATCCGTATTTGAA (site CCTAGTTCTTT) | 0 |
| CAAGCGCCATGGACCGGTTTTCCCGGTAATCCGTATTTGAG (site CAAGCGCCTCA) | 0.0151 |
| GTGGATGCATGGACCGGTTTTCCCGGTAATCCGTATTTGTG (site GTGGATGCTCA) | 1.67 |
| CCTAATACATGGACCGGTTTTCCCGGTAATCCGTATTTGGC (site CCTAATACTGA) | 0.0391 |
| CTCTACACATGGACCGGTTTTCCCGGTAATCCGTATTTGCA (site CTCTACACTGG) | 1.53 |
| CTAGTATCATGGACCGGTTTTCCCGGTAATCCGTATTTGAC (site CCAGTAGCTGT) | 0 |
| CGCTCCGCATGGACCGGTTTTCCCGGTAATCCGTATTTGCA (site CGCTCCGCTTG) | 1.79 |
| CTGTTTACATGGACCGGTTTTCCCGGTAATCCGTATTTGCT (site CGGTTTACTAG) | 0 |
| TTTGCGGCATGGACCGGTTTTCCCGGTAATCCGTATTTGCT (site TTTGCTGCTAG) | 0 |
| AATGTAACATGGACCGGTTTTCCCGGTAATCCGTATTTGCC (site AATGTAACTTG) | 1.34 |
| TTGAGAACATGGACCGGTTTTCCCGGTAATCCGTATTTGAC (site TTGAGAACTGT) | 0.447 |
| ACATTTACATGGACCGGTTTTCCCGGTAATCCGTATTTGTG (site ACATCTACTCA) | 0.162 |
| CTAGCGACATGGACCGGTTTTCCCGGTAATCCGTATTTGCC (site CTAGCGACTGG) | 3.09 |
| GCGAGAACATGGACCGGTTTTCCCGGTAATCCGTATTTGCT (site GCGAAAACTAG) | 1.35 |
| TAGCTAGCATGGACCGGTTTTCCCGGTAATCCGTATTTGGA (site TAGCTAGCTTC) | 0.303 |
| TACGTCGCATGGACCGGTTTTCCCGGTAATCCGTATTTGGA (site TACGTCGCTTC) | 1.08 |
| CAATACCCATGGACCGGTTTTCCCGGTAATCCGTATTTGCT (site CAATACCCTAG) | 1.93 |
| ATTGAGACATGGACCGGTTTTCCCGGTAATCCGTATTTGGT (site ATTCAGACTAC) | 0.296 |
| AGTTATGCATGGACCGGTTTTCCCGGTAATCCGTATTTGGA (site ACTTATGCTTC) | 0.849 |
| CCTAAGACATGGACCGGTTTTCCCGGTAATCCGTATTTGGC (site CCTAAAACTGC) | 0 |
| GGGCACCCATGGACCGGTTTTCCCGGTAATCCGTATTTGTT (site GGTCACCCTAA) | 0.268 |
| TACTTGGCATGGACCGGTTTTCCCGGTAATCCGTATTTGTG (site TATTTGGCTCA) | 0.00802 |
| CGTGGAACATGGACCGGTTTTCCCGGTAATCCGTATTTGTG (site CGTGGAACTAA) | 0.0173 |

| Sequence | recombinant UMI read abundance (log10) |
| --- | --- |
| AGGCACGCATGGACCGGTTTTCCCGGTAATCCGTATTTGGG (site ACGCACGCTCC) | 0.183 |
| ACACTGGCATGGACCGGTTTTCCCGGTAATCCGTATTTGAG (site ACACTGGCTCT) | 1.38 |
| CAATTCCCATGGACCGGTTTTCCCGGTAATCCGTATTTGCT (site CAATTCCCTCG) | 0.178 |
| CTAGTATCATGGACCGGTTTTCCCGGTAATCCGTATTTGAT (site CTAGTATCTGT) | 1.31 |
| CCCAACACATGGACCGGTTTTCCCGGTAATCCGTATTTGTA (site CCCGACACTTA) | 0.0265 |
| CAAGCAGCATGGACCGGTTTTCCCGGTAATCCGTATTTGCT (site CAAGCAGCTAA) | 0.285 |
| GCGAAGCCATGGACCGGTTTTCCCGGTAATCCGTATTTGGG (site GAGAAGCCTCC) | 0.00349 |
| CGGAACCCATGGACCGGTTTTCCCGGTAATCCGTATTTGGT (site CGGAATCCTAA) | 0 |
| CAGGTTCCATGGACCGGTTTTCCCGGTAATCCGTATTTGAA (site CAGGTTCCTTT) | 1.98 |
| TGAACACCATGGACCGGTTTTCCCGGTAATCCGTATTTGCA (site TGAACACCTTG) | 0.302 |
| CTGGTATCATGGACCGGTTTTCCCGGTAATCCGTATTTGCC (site CTGGTATCTGG) | 0 |
| CTGGAAACATGGACCGGTTTTCCCGGTAATCCGTATTTGAA (site CTGGAAACTTC) | 0.988 |
| ACAGGACCATGGACCGGTTTTCCCGGTAATCCGTATTTGCA (site ACAGTATCTTG) | 1.52 |
| ACATGACCATGGACCGGTTTTCCCGGTAATCCGTATTTGCC (site ACATGACCTGG) | 0 |
| CCAGCTGCATGGACCGGTTTTCCCGGTAATCCGTATTTGAT (site CCAGCTGCTAT) | 1.7 |
| GCGCGGGCATGGACCGGTTTTCCCGGTAATCCGTATTTGGC (site GCGCGGGCTGC) | 2.54 |
| CTCCCCACATGGACCGGTTTTCCCGGTAATCCGTATTTGAG (site CTCCCAACTCT) | 0.00953 |
| CAATTCCCATGGACCGGTTTTCCCGGTAATCCGTATTTGCT (site CAATTCACTAG) | 0 |
| GTGGAGGCATGGACCGGTTTTCCCGGTAATCCGTATTTGTG (site GTGGAGGCTCA) | 1.41 |
| GGTCCAACATGGACCGGTTTTCCCGGTAATCCGTATTTGAA (site GGTCCAACTTA) | 0.0074 |
| CTAATCTCATGGACCGGTTTTCCCGGTAATCCGTATTTGAC (site CTAGTATCTGT) | 0 |
| CTAGTATCATGGACCGGTTTTCCCGGTAATCCGTATTTGAC (site CTAGTTTCTGT) | 0 |
| CTGGGCGCATGGACCGGTTTTCCCGGTAATCCGTATTTGCA (site AATACGCCTAT) | 0.0174 |
| TGTACACCATGGACCGGTTTTCCCGGTAATCCGTATTTGAA (site TGTACACCTGT) | 0 |
| AACTCGCCATGGACCGGTTTTCCCGGTAATCCGTATTTGTT (site AACTCGCCTAA) | 0.0268 |

| Sequence | recombinant UMI read abundance (log10) |
| --- | --- |
| TCAGGTGCATGGACCGGTTTTCCCGGTAATCCGTATTTGAT (site TCAGGTGCTAT) | 1.74 |
| AGGGCTACATGGACCGGTTTTCCCGGTAATCCGTATTTGAC (site AGGACTACTGT) | 1.24 |
| ACATATCCATGGACCGGTTTTCCCGGTAATCCGTATTTGAC (site ACAGATCCTGT) | 0 |
| TGGGCACCATGGACCGGTTTTCCCGGTAATCCGTATTTGCA (site TGGGCACCTTG) | 0.00258 |
| CTAGTATCATGGACCGGTTTTCCCGGTAATCCGTATTTGAC (site CGAGGATCTGT) | 0 |
| GTTGTTCCATGGACCGGTTTTCCCGGTAATCCGTATTTGGT (site GTCGTTCCTAC) | 0.005 |
| CAAGCAGCATGGACCGGTTTTCCCGGTAATCCGTATTTGCT (site CAAGCAGCTCG) | 0.839 |
| GAGTCATCATGGACCGGTTTTCCCGGTAATCCGTATTTGGT (site GAGTCATCTAC) | 1.02 |
| CGCCTTACATGGACCGGTTTTCCCGGTAATCCGTATTTGCT (site CGCCTTACTAG) | 1.57 |
| TAGCCGGCATGGACCGGTTTTCCCGGTAATCCGTATTTGGC (site TGGCCGGCTGC) | 0 |
| TCTTACTCATGGACCGGTTTTCCCGGTAATCCGTATTTGCA (site TCATACTCTTG) | 0.465 |
| AGGCACGCATGGACCGGTTTTCCCGGTAATCCGTATTTGGG (site AAGCACGCTCC) | 0.371 |
| GACAAACCATGGACCGGTTTTCCCGGTAATCCGTATTTGTT (site GACAAACCTAG) | 0 |
| CGATCACCATGGACCGGTTTTCCCGGTAATCCGTATTTGCT (site CGATCAACTAG) | 0 |
| CTAGTCTCATGGACCGGTTTTCCCGGTAATCCGTATTTGAC (site CTAGTCTCTGT) | 2.93 |
| GGGCACCCATGGACCGGTTTTCCCGGTAATCCGTATTTGTT (site GGACACCCTAA) | 0.0162 |
| TACTTGACATGGACCGGTTTTCCCGGTAATCCGTATTTGCT (site TAATTGACTAG) | 0.201 |
| CCTAGAGCATGGACCGGTTTTCCCGGTAATCCGTATTTGAT (site CCTATAGCTAT) | 0 |
| GCCATATCATGGACCGGTTTTCCCGGTAATCCGTATTTGTC (site GCCATATCTGA) | 1.87 |
| TATGCGACATGGACCGGTTTTCCCGGTAATCCGTATTTGCT (site TATGCGACTAG) | 1.27 |
| CCAGGTGCATGGACCGGTTTTCCCGGTAATCCGTATTTGGT (site CCAGGTGCTAG) | 0 |
| ACAGATCCATGGACCGGTTTTCCCGGTAATCCGTATTTGAC (site ACATATCCTGT) | 0.985 |
| GGAAAGGCATGGACCGGTTTTCCCGGTAATCCGTATTTGCT (site CGAAAGGCTAG) | 1.06 |
| TCTTCCCCATGGACCGGTTTTCCCGGTAATCCGTATTTGTA (site TCTTCCCCTTA) | 0 |
| GCGTAGCCATGGACCGGTTTTCCCGGTAATCCGTATTTGGG (site GCGAAGCCTCC) | 0.00823 |
